In patent US20240254118A1, “PRMT5 INHIBITORS AND USES THEREOF” (Gilead Sciences, Inc., priority 2022, published 2024):
pEC50: −log10 of the molar value.

Columns and labels:
[1] = tested on: SDMA signal (PRMT5 inhibition) in HCT116 MTAP-deleted cells; assay: Symmetric di-methyl arginine image-based high content screen assay (SDMA assay), HCT116 MTAP-deleted; format: cell-based; settings: SDMA assay; for pEC50: Homo sapiens, HCT-116, 72 h, 3 days of treatment, cell line not given, taken as HCT116 MTAP-deleted, read-out: EC50 (SDMA assay); for EC50 selectivity (SDMA assay): taken as HCT116 WT vs MTAP-deleted
Outline: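 Read-out: per-cell mean SDMA immunofluorescence (Alexa Fluor 488 secondary), cells segmented by DAPI on a high-content imager. Compound exposure in HCT116 MTAP-deleted cells lasted until fixation on Day 3; overnight 4° C primary anti-SDMA antibody staining.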

[2] = tested on: HCT116 MTAP-deleted cells; assay: Cell viability assay (CellTiter-Glo, 7 days), HCT116 MTAP-deleted; settings: Homo sapiens, HCT-116, 168 h

| SMILES | pEC50 [1] | EC50 selectivity (SDMA assay) [1] | CC50 [2] [nM] |
| --- | --- | --- | --- |
| CC(=O)N(C)N(Cc1cc2cc(Cl)ccn2n1)C(=O)c1ccc2nc(N)c3cnn(C)c3c2c1 [Example 400, N′-acetyl-4-amino-N-((5-chloropyrazolo[1,5-a]pyridin-2-yl)methyl)-N′,1-dimethyl-1H-pyrazolo[4,3-c]quinoline-8-carbohydrazide] | > 9.00 | 278 | < 100 |
| CC(=O)N(C)N(Cc1cc2cc(C(F)(F)F)ccn2n1)C(=O)c1ccc2nc(N)c3cnn(C)c3c2c1 [Example 402, N′-acetyl-4-amino-N′,1-dimethyl-N-((5-(trifluoromethyl)pyrazolo[1,5-a]pyridin-2-yl)methyl)-1H-pyrazolo[4,3-c]quinoline-8-carbohydrazide] | > 9.00 | 311 | < 100 |
| CC(=O)N(C)N(Cc1cc2ccc(Cl)cn2n1)C(=O)c1ccc2nc(N)c3cnn(C)c3c2c1 [Example 403, N′-acetyl-4-amino-N-((6-chloropyrazolo[1,5-a]pyridin-2-yl)methyl)-N′,1-dimethyl-1H-pyrazolo[4,3-c]quinoline-8-carbohydrazide] | > 9.00 | 476 | < 100 |
| CC(=O)N(C)N(Cc1c(F)cc(F)cc1F)C(=O)c1ccc2nc(N)c3cnn(C)c3c2c1 [Example 413, N′-acetyl-4-amino-N′,1-dimethyl-N-(2,4,6-trifluorobenzyl)-1H-pyrazolo[4,3-c]quinoline-8-carbohydrazide] | > 9.00 | 497 | < 100 |
| CC(=O)N(C)N(Cc1c(F)cc(C(F)(F)F)cc1F)C(=O)c1ccc2nc(N)c3cnn(C)c3c2c1 [Example 415, N′-acetyl-4-amino-N-(2,6-difluoro-4-(trifluoromethyl)benzyl)-N′,1-dimethyl-1H-pyrazolo[4,3-c]quinoline-8-carbohydrazide] | > 9.00 | 26 | < 100 |
| CC(=O)N(C)N(Cc1ccc(C(F)(F)F)nc1C)C(=O)c1ccc2nc(N)c3cnn(C)c3c2c1 [Example 416, N′-acetyl-4-amino-N′,1-dimethyl-N-((2-methyl-6-(trifluoromethyl)pyridin-3-yl)methyl)-1H-pyrazolo[4,3-c]quinoline-8-carbohydrazide] | 8.30 to 9.00 | 133 | < 100 |
| CC(=O)N(C)N(Cc1cc2c(C(F)(F)F)cccc2s1)C(=O)c1ccc2nc(N)c3cnn(C)c3c2c1 [Example 418, N′-acetyl-4-amino-N′,1-dimethyl-N-((4-(trifluoromethyl)benzo[b]thiophen-2-yl)methyl)-1H-pyrazolo[4,3-c]quinoline-8-carbohydrazide] | 8.30 to 9.00 | 114 | < 100 |
| CC(=O)N(C)N(Cc1nc2cc(C(F)(F)F)ccc2n1C)C(=O)c1ccc2nc(N)c3cnn(C)c3c2c1 [Example 423, N′-acetyl-4-amino-N′,1-dimethyl-N-((1-methyl-5-(trifluoromethyl)-1H-benzo[d]imidazol-2-yl)methyl)-1H-pyrazolo[4,3-c]quinoline-8-carbohydrazide] | 8.30 to 9.00 | 149 | < 100 |
| CC(=O)N(C)N(Cc1sc2ccccc2c1Cl)C(=O)c1ccc2nc(N)c3cnn(C)c3c2c1 [Example 442, N′-acetyl-4-amino-N-((3-chlorobenzo[b]thiophen-2-yl)methyl)-N′,1-dimethyl-1H-pyrazolo[4,3-c]quinoline-8-carbohydrazide] | > 9.00 | 163 | < 100 |
| CC(=O)N(C)N(Cc1sc2ccccc2c1Br)C(=O)c1ccc2nc(N)c3cnn(C)c3c2c1 [Example 444, N′-acetyl-4-amino-N-((3-bromobenzo[b]thiophen-2-yl)methyl)-N′,1-dimethyl-1H-pyrazolo[4,3-c]quinoline-8-carbohydrazide] | > 9.00 | 117 | < 100 |
| CC(=O)NN(Cc1ccc(C(F)(F)F)cc1F)C(=O)c1ccc2nc(N)c3cnn(C)c3c2c1 [Example 445, N′-acetyl-4-amino-N-(2-fluoro-4-(trifluoromethyl)benzyl)-1-methyl-1H-pyrazolo[4,3-c]quinoline-8-carbohydrazide] | > 9.00 | 69 | < 100 |
| CC(=O)N(C)N(Cc1ccc(OC(F)F)cc1Cl)C(=O)c1ccc2nc(N)c3cnn(C)c3c2c1 [Example 447, N′-acetyl-4-amino-N-(2-chloro-4-(difluoromethoxy)benzyl)-N′,1-dimethyl-1H-pyrazolo[4,3-c]quinoline-8-carbohydrazide] | > 9.00 | 49 | < 100 |

Continued, in another order:

| pEC50 [1] | EC50 selectivity (SDMA assay) [1] | SMILES | CC50 [2] [nM] |
| --- | --- | --- | --- |
| > 9.00 | 154 | CC(NN(Cc1ccc(C(F)(F)F)cn1)C(=O)c1ccc2nc(N)c3cnn(C)c3c2c1)C(F)(F)F (stereo not drawn) [Example 405, 4-amino-1-methyl-N-((5-(trifluoromethyl)pyridin-2-yl)methyl)-N′-(1,1,1-trifluoropropan-2-yl)-1H-pyrazolo[4,3-c]quinoline-8-carbohydrazide] | < 100 |
| > 9.00 | 212 | CC(=O)N(C)N(Cc1ccc(C#N)cc1Cl)C(=O)c1ccc2nc(N)c3cnn(C)c3c2c1 [Example 406, N′-acetyl-4-amino-N-(2-chloro-4-cyanobenzyl)-N′,1-dimethyl-1H-pyrazolo[4,3-c]quinoline-8-carbohydrazide] | < 100 |
| 8.30 to 9.00 | 118 | CC(=O)N(C)N(Cc1cc2cccc(C(F)(F)F)c2s1)C(=O)c1ccc2nc(N)c3cnn(C)c3c2c1 [Example 419, N′-acetyl-4-amino-N′,1-dimethyl-N-((7-(trifluoromethyl)benzo[b]thiophen-2-yl)methyl)-1H-pyrazolo[4,3-c]quinoline-8-carbohydrazide] | < 100 |
| > 9.00 | 87 | Cn1ncc2c(N)nc3ccc(C(=O)N(Cc4nc5cc(C(F)(F)F)ccc5n4C)N4CCCC4=O)cc3c21 [Example 420, 4-amino-1-methyl-N-((1-methyl-5-(trifluoromethyl)-1H-benzo[d]imidazol-2-yl)methyl)-N-(2-oxopyrrolidin-1-yl)-1H-pyrazolo[4,3-c]quinoline-8-carboxamide] | < 100 |
| 8.30 to 9.00 | 73 | CC(=O)N(C)N(Cc1cnc(-c2ccccc2)n1C)C(=O)c1cc2c(cc1F)nc(N)c1cnn(C)c12 [Example 421, N′-acetyl-4-amino-7-fluoro-N′,1-dimethyl-N-((1-methyl-2-phenyl-1H-imidazol-5-yl)methyl)-1H-pyrazolo[4,3-c]quinoline-8-carbohydrazide] | < 100 |
| 8.30 to 9.00 | 297 | CC(=O)N(C)N(Cc1ccn(-c2ccc(F)cc2)n1)C(=O)c1ccc2nc(N)c3cnn(C)c3c2c1 [Example 432, N′-acetyl-4-amino-N-((1-(4-fluorophenyl)-1H-pyrazol-3-yl)methyl)-N′,1-dimethyl-1H-pyrazolo[4,3-c]quinoline-8-carbohydrazide] | < 100 |
| 8.30 to 9.00 | 256 | CN(C(=O)C1CC1)N(Cc1nc2cc(C(F)(F)F)ccc2n1C)C(=O)c1ccc2nc(N)c3cnn(C)c3c2c1 [Example 437, 4-amino-N′-(cyclopropanecarbonyl)-N′,1-dimethyl-N-((1-methyl-5-(trifluoromethyl)-1H-benzo[d]imidazol-2-yl)methyl)-1H-pyrazolo[4,3-c]quinoline-8-carbohydrazide] | < 100 |
| > 9.00 | 141 | CC(=O)N(C)N(Cc1nc2cccc(Cl)c2n1C)C(=O)c1ccc2nc(N)c3cnn(C)c3c2c1 [Example 438, N′-acetyl-4-amino-N-((7-chloro-1-methyl-1H-benzo[d]imidazol-2-yl)methyl)-N′,1-dimethyl-1H-pyrazolo[4,3-c]quinoline-8-carbohydrazide] | < 100 |
| > 9.00 | 51 | Cn1ncc2c(N)nc3ccc(C(=O)N(Cc4ccc(Cl)cc4F)NC(=O)C4CC4)cc3c21 [Example 439, 4-amino-N-(4-chloro-2-fluorobenzyl)-N′-(cyclopropanecarbonyl)-1-methyl-1H-pyrazolo[4,3-c]quinoline-8-carbohydrazide] | < 100 |
| > 9.00 | 400 | Cn1ncc2c(N)nc3ccc(C(=O)N(Cc4ccc(C(F)(F)F)cn4)NC(=O)C4CC4)cc3c21 [Example 443, 4-amino-N′-(cyclopropanecarbonyl)-1-methyl-N-((5-(trifluoromethyl)pyridin-2-yl)methyl)-1H-pyrazolo[4,3-c]quinoline-8-carbohydrazide] | < 100 |
| 8.30 to 9.00 | 224 | CC(=O)N(C)N(Cc1c(Cl)ccc(F)c1F)C(=O)c1ccc2nc(N)c3cnn(C)c3c2c1 [Example 448, N′-acetyl-4-amino-N-(6-chloro-2,3-difluorobenzyl)-N′,1-dimethyl-1H-pyrazolo[4,3-c]quinoline-8-carbohydrazide] | < 100 |
| 8.30 to 9.00 | 62 | CN(Cc1ccccn1)N(Cc1ccc(C(F)(F)F)cn1)C(=O)c1cc2c(cc1F)nc(N)c1cnn(C)c12 [Example 449, 4-amino-7-fluoro-N′,1-dimethyl-N′-(pyridin-2-ylmethyl)-N-((5-(trifluoromethyl)pyridin-2-yl)methyl)-1H-pyrazolo[4,3-c]quinoline-8-carbohydrazide] | < 100 |
